Assay results taken from PubChem BioAssay AID1918930 (Molecular Pharmacology Branch, DTP, NCI, 2023).
“And” between values parts separate entries of the source, which are not always exact repeats. Equal values may be shown once.

Tested on: 233499-124-R-J3-PDC complex spheroid viability, % test/control
Assay: Anticancer human tumor 233499-124-R-J3-PDC patient-derived colon adenocarcinoma cell line growth inhibition
Conditions: for viability, T/C: stronger effect = lower value; active = viability on the fitted dose curve at most 10% of control; inactive = the rest
In short: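 Multicellular complex spheroids of tumor cells with human endothelial cells (HUVEC) and mesenchymal stem cells; the LSD1 inhibitor iadademstat was combined with standard-of-care or investigational agents. Top concentration at or near clinical Cmax, half-log dilutions; final DMSO ≤0.25%.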

[1] = curve of first compound, second compound 0.1 µM
[2] = curve of first compound, second compound 0.316 µM
[3] = curve of first compound, second compound 1 µM
[4] = curve of first compound, second compound 3.16 µM
[5] = curve of first compound, second compound 10 µM
[6] = second compound 0.1 µM, first compound 0.00316 µM
[7] = second compound 0.1 µM, first compound 0.01 µM
[8] = second compound 0.1 µM, first compound 0.0316 µM
[9] = second compound 0.1 µM, first compound 0.1 µM
[10] = second compound 0.316 µM, first compound 0.00316 µM
[11] = second compound 0.316 µM, first compound 0.01 µM
[12] = second compound 0.316 µM, first compound 0.0316 µM
[13] = second compound 0.316 µM, first compound 0.1 µM
[14] = second compound 1 µM, first compound 0.00316 µM
[15] = second compound 1 µM, first compound 0.01 µM
[16] = second compound 1 µM, first compound 0.0316 µM
[17] = second compound 1 µM, first compound 0.1 µM
[18] = second compound 3.16 µM, first compound 0.00316 µM
[19] = second compound 3.16 µM, first compound 0.01 µM
[20] = second compound 3.16 µM, first compound 0.0316 µM
[21] = second compound 3.16 µM, first compound 0.1 µM
[22] = second compound 10 µM, first compound 0.00316 µM
[23] = second compound 10 µM, first compound 0.01 µM
[24] = second compound 10 µM, first compound 0.0316 µM
[25] = second compound 10 µM, first compound 0.1 µM
[26] = second compound 0.1 µM, first compound 0.316 µM
[27] = second compound 0.1 µM, first compound 1 µM
[28] = second compound 0.316 µM, first compound 0.316 µM
[29] = second compound 0.316 µM, first compound 1 µM
[30] = second compound 1 µM, first compound 0.316 µM
[31] = second compound 1 µM, first compound 1 µM
[32] = second compound 3.16 µM, first compound 0.316 µM
[33] = second compound 3.16 µM, first compound 1 µM
[34] = second compound 10 µM, first compound 0.316 µM
[35] = second compound 10 µM, first compound 1 µM
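Also: spheroids exposed to agents for one week before readout.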

CC(C)CC(NC(=O)CNC(=O)c1cc(Cl)ccc1Cl)B1OC(=O)CC(CC(=O)O)(C(=O)O)O1 (configuration not stated) + NC1CC1c1ccc(-c2cccc(O)c2)cc1
4.93 nM: IC50 [1]
4.65 nM: IC50 [4]
inactive: viability, T/C (second compound 0.1 µM, first compound 0.000316 µM) 114% | viability, T/C (second compound 0.1 µM, first compound 0.001 µM) 105% | viability, T/C [6] 80.2% | viability, T/C (second compound 0.316 µM, first compound 0.000316 µM) 113% | viability, T/C (second compound 0.316 µM, first compound 0.001 µM) 109% | viability, T/C [10] 88.4% | viability, T/C (second compound 1 µM, first compound 0.000316 µM) 104% | viability, T/C (second compound 1 µM, first compound 0.001 µM) 95.1% | viability, T/C [14] 66.3% | viability, T/C (second compound 3.16 µM, first compound 0.000316 µM) 89.6% | viability, T/C (second compound 3.16 µM, first compound 0.001 µM) 88.1% | viability, T/C [18] 73.8% | viability, T/C (second compound 10 µM, first compound 0.000316 µM) 70.4% | viability, T/C (second compound 10 µM, first compound 0.001 µM) 88.1% | viability, T/C [22] 56.9%
active: viability, T/C [7] 1.61% | viability, T/C [8] 0.06% | viability, T/C [9] 0.15% | viability, T/C [11] 2.74% | viability, T/C [12] 0.07% | viability, T/C [13] 0.16% | viability, T/C [15] 1.28% | viability, T/C [16] 0.13% | viability, T/C [17] 0.13% | viability, T/C [19] 2.88% | viability, T/C [20] 0.06% | viability, T/C [21] 0.12% | viability, T/C [23] 0.89% | viability, T/C [24] 0.15% | viability, T/C [25] 0.18%
5.3 nM: IC50 [2]
4.23 nM: IC50 [3]
3.64 nM: IC50 [5]

CCc1c2c(nc3ccc(O)cc13)-c1cc3c(c(=O)n1C2)COC(=O)[C@]3(O)CC + NC1CC1c1ccc(-c2cccc(O)c2)cc1
22.6 nM: IC50 [2]
50.3 nM: IC50 [5]
27.6 nM: IC50 [4]
25.6 nM: IC50 [1]
inactive: viability, T/C (second compound 0.1 µM, first compound 0.000949 µM) 88% | viability, T/C (second compound 0.1 µM, first compound 0.003 µM) 122% | viability, T/C (second compound 0.1 µM, first compound 0.00949 µM) 90.8% | viability, T/C (second compound 0.1 µM, first compound 0.03 µM) 44.2% | viability, T/C (second compound 0.1 µM, first compound 0.0949 µM) 27.7% | viability, T/C (second compound 0.1 µM, first compound 0.3 µM) 29.5% | viability, T/C (second compound 0.316 µM, first compound 0.000949 µM) 103% | viability, T/C (second compound 0.316 µM, first compound 0.003 µM) 112% | viability, T/C (second compound 0.316 µM, first compound 0.00949 µM) 88.1% | viability, T/C (second compound 0.316 µM, first compound 0.03 µM) 38.3% | viability, T/C (second compound 0.316 µM, first compound 0.0949 µM) 25.2% | viability, T/C (second compound 0.316 µM, first compound 0.3 µM) 30.3% | viability, T/C (second compound 1 µM, first compound 0.000949 µM) 70.4% | viability, T/C (second compound 1 µM, first compound 0.003 µM) 112% | viability, T/C (second compound 1 µM, first compound 0.00949 µM) 101% | viability, T/C (second compound 1 µM, first compound 0.03 µM) 40.6% | viability, T/C (second compound 1 µM, first compound 0.0949 µM) 19.6% | viability, T/C (second compound 1 µM, first compound 0.3 µM) 30.4% | viability, T/C (second compound 3.16 µM, first compound 0.000949 µM) 77.6% | viability, T/C (second compound 3.16 µM, first compound 0.003 µM) 109% | viability, T/C (second compound 3.16 µM, first compound 0.00949 µM) 98.6% | viability, T/C (second compound 3.16 µM, first compound 0.03 µM) 46.4% | viability, T/C (second compound 3.16 µM, first compound 0.0949 µM) 31.5% | viability, T/C (second compound 3.16 µM, first compound 0.3 µM) 24.6% | viability, T/C (second compound 10 µM, first compound 0.000949 µM) 65.1% | viability, T/C (second compound 10 µM, first compound 0.003 µM) 88.5% | viability, T/C (second compound 10 µM, first compound 0.00949 µM) 105% | viability, T/C (second compound 10 µM, first compound 0.03 µM) 59.7% | viability, T/C (second compound 10 µM, first compound 0.0949 µM) 43.8% | viability, T/C (second compound 10 µM, first compound 0.3 µM) 32.4%
24.5 nM: IC50 [3]

CC1COCCN1c1cc(-c2ccnn2C)c2ccnc(-c3ccn[nH]3)c2n1 (configuration not stated) + NC1CC1c1ccc(-c2cccc(O)c2)cc1
> 1000 nM: IC50 [1] | IC50 [2] | IC50 [3]
inactive: viability, T/C [6] 60.7% | viability, T/C [7] 63.2% | viability, T/C [8] 36.7% | viability, T/C [9] 39.4% | viability, T/C [26] 56.4% | viability, T/C [27] 102% | viability, T/C [10] 62.7% | viability, T/C [11] 75.6% | viability, T/C [12] 38.9% | viability, T/C [13] 36.6% | viability, T/C [28] 43.7% | viability, T/C [29] 87.3% | viability, T/C [14] 64.1% | viability, T/C [15] 59.6% | viability, T/C [16] 37.4% | viability, T/C [17] 40.1% | viability, T/C [30] 39.1% | viability, T/C [31] 81.8% | viability, T/C [18] 60.5% | viability, T/C [19] 50.9% | viability, T/C [20] 39.5% | viability, T/C [21] 42.7% | viability, T/C [32] 44.2% | viability, T/C [33] 82.1% | viability, T/C [22] 53.4% | viability, T/C [23] 42.1% | viability, T/C [24] 32.7% | viability, T/C [25] 36.2% | viability, T/C [34] 32.9% | viability, T/C [35] 76.5%
< 3.16 nM: IC50 [4] | IC50 [5]

CC1COCCN1c1cc(-c2ccnn2C)c2ccnc(-c3ccn[nH]3)c2n1 (configuration not stated) + NC1CCC(NC2CC2c2ccccc2)CC1
17.5 nM: IC50 [5]
22.7 nM: IC50 [4]
19 nM: IC50 [3]
inactive: viability, T/C [6] 86.8% | viability, T/C [7] 91.9% | viability, T/C [8] 46.1% | viability, T/C [9] 45.4% | viability, T/C [26] 25.4% | viability, T/C [27] 30.7% | viability, T/C [10] 101% | viability, T/C [11] 79.2% | viability, T/C [12] 63.8% | viability, T/C [13] 39.1% | viability, T/C [28] 30.1% | viability, T/C [29] 33.6% | viability, T/C [14] 87.3% | viability, T/C [15] 71.1% | viability, T/C [16] 32.8% | viability, T/C [17] 33.9% | viability, T/C [30] 21.9% | viability, T/C [31] 28.5% | viability, T/C [18] 81.1% | viability, T/C [19] 71.2% | viability, T/C [20] 39.9% | viability, T/C [21] 30% | viability, T/C [32] 18.1% | viability, T/C [33] 22.2% | viability, T/C [22] 79.5% | viability, T/C [23] 63.5% | viability, T/C [24] 35% | viability, T/C [25] 27.3% | viability, T/C [34] 17.8% | viability, T/C [35] 23.1%
57.7 nM: IC50 [2]
28.5 nM: IC50 [1]

COc1ccc([C@@H](O)c2cc(-c3ncnc4cc(N5CCOCC5)ccc34)c(F)cc2Cl)nn1
4170 nM and 5860 nM: IC50 (curve of compound)
inactive: viability, T/C (compound 0.0316 µM) 81.5% and 87.1% | viability, T/C (compound 0.1 µM) 76.2% and 85.3% | viability, T/C (compound 0.316 µM) 77% and 72.1% | viability, T/C (compound 1 µM) 82.3% and 74.6% | viability, T/C (compound 3.16 µM) 61.9% and 68.9% | viability, T/C (compound 10 µM) 12.8% and 35.8%

COc1ccc([C@@H](O)c2cc(-c3ncnc4cc(N5CCOCC5)ccc34)c(F)cc2Cl)nn1 + NC1CC1c1ccc(-c2cccc(O)c2)cc1
1710 nM: IC50 [5]
5490 nM: IC50 [3]
inactive: viability, T/C [8] 97.3% | viability, T/C [9] 93.4% | viability, T/C [26] 95.7% | viability, T/C [27] 71.5% | viability, T/C (second compound 0.1 µM, first compound 3.16 µM) 63% | viability, T/C (second compound 0.1 µM, first compound 10 µM) 36.3% | viability, T/C [12] 93.3% | viability, T/C [13] 98.3% | viability, T/C [28] 95.5% | viability, T/C [29] 78.6% | viability, T/C (second compound 0.316 µM, first compound 3.16 µM) 78.5% | viability, T/C (second compound 0.316 µM, first compound 10 µM) 36.1% | viability, T/C [16] 91.4% | viability, T/C [17] 80.4% | viability, T/C [30] 79.1% | viability, T/C [31] 62% | viability, T/C (second compound 1 µM, first compound 3.16 µM) 63.1% | viability, T/C (second compound 1 µM, first compound 10 µM) 40.1% | viability, T/C [20] 92.1% | viability, T/C [21] 95.8% | viability, T/C [32] 75.9% | viability, T/C [33] 67.3% | viability, T/C (second compound 3.16 µM, first compound 3.16 µM) 57.7% | viability, T/C (second compound 3.16 µM, first compound 10 µM) 26.9% | viability, T/C [24] 69.5% | viability, T/C [25] 80.2% | viability, T/C [34] 57.7% | viability, T/C [35] 49.7% | viability, T/C (second compound 10 µM, first compound 3.16 µM) 51.2% | viability, T/C (second compound 10 µM, first compound 10 µM) 21.5%
6670 nM: IC50 [2]
3620 nM: IC50 [4]
5190 nM: IC50 [1]
